The values that follow come from ChEMBL document CHEMBL1137501, “Identification and synthesis of major metabolites of Vasopressin V2-receptor agonist WAY-151932, and antagonist, Lixivaptan” (Bioorg Med Chem Lett, 2007).

As a reminder, the inhibition is the relative decrease from the control value, in per cent. For orientation: IC50 means the concentration needed to halve the response being measured. Higher therefore signals weaker potency.

The target in test [1] is T1, Vasopressin V1a receptor (Homo sapiens, UniProt P37288). The test is described as follows: Displacement of [3H]manning ligand from human vasopressin V1a receptor expressed in CHO cells at 100 nM. Type of test: cell-based. (In general: Displacement assays read how much labelled ligand stays bound in the presence of the test substance.)
Target sequence in this assay (P37288 whole entry, looked up): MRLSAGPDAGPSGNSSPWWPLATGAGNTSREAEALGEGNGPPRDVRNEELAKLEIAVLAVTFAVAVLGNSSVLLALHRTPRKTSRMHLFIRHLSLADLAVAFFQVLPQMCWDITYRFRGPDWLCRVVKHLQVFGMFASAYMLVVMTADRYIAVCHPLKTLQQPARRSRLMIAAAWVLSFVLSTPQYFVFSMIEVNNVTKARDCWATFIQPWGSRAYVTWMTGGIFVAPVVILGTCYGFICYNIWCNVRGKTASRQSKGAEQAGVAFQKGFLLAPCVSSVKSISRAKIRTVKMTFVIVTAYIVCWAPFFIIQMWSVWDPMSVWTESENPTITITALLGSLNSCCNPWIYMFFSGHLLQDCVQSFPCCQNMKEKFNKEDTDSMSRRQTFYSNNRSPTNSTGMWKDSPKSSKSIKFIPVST
In test [2] the target is T2, Oxytocin receptor (Homo sapiens) (UniProt P30559).
T2 sequence (whole entry): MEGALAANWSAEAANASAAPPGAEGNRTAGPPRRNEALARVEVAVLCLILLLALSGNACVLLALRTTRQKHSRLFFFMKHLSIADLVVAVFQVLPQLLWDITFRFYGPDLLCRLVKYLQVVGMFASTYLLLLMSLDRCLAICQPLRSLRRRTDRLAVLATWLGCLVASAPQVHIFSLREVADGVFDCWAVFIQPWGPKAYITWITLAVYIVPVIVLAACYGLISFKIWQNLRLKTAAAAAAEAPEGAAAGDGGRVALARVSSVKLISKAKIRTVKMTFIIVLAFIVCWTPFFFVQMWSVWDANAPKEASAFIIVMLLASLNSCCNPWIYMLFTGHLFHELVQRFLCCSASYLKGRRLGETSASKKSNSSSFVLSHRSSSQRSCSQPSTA
The test is described as follows: Displacement of [3H]oxytocin from human oxytocin receptor expressed in CHO cells at 100 nM. Type of test: cell-based.

Test [3] addresses T3, Vasopressin V2 receptor (Homo sapiens, UniProt P30518). Briefly: Displacement of [3H]AVP from human vasopressin V2 receptor expressed in CHO cells at 100 nM. It is filed as cell-based.
The target in test [4] is T3, Vasopressin V2 receptor. The test is described as follows: Displacement of [3H]AVP from human vasopressin V2 receptor expressed in CHO cells. Type of test: cell-based.
Test [5] deals with T1, Vasopressin V1a receptor. Briefly: Displacement of [3H]manning ligand from human vasopressin V1a receptor expressed in CHO cells. Type of test: cell-based.
Target sequence in this assay (P37288 whole entry): as the sequence (P37288 whole entry, looked up) above
Test [6] deals with Rattus norvegicus. The test is described as follows: Effect on urine volume in rat 10 mg/kg, po relative to control. Type of test: functional.
The target in a further test is T4, Oxytocin receptor (Homo sapiens, UniProt P30559).
T4 sequence (P30559 whole entry): T2 sequence (whole entry)
The test is described as follows: Displacement of [3H]oxytocin from human oxytocin receptor expressed in CHO cells. It is filed as cell-based.

Test [7] concerns Rattus norvegicus. The test is described as follows: Effect on urine volume in rat 10 mg/kg, iv relative to control. Type of test: functional.
The target of test [8] is T2, Oxytocin receptor (Homo sapiens). Briefly: Displacement of [3H]oxytocin from human oxytocin receptor expressed in CHO cells at 1000 nM. Type of test: cell-based.
Test [9] addresses T3, Vasopressin V2 receptor. Briefly: Displacement of [3H]AVP from human vasopressin V2 receptor expressed in CHO cells at 1000 nM. Type of test: cell-based.
The target of test [10] is T1, Vasopressin V1a receptor. The test is described as follows: Displacement of [3H]manning ligand from human vasopressin V1a receptor expressed in CHO cells at 1000 nM. Type of test: cell-based.
Target sequence in this assay (P37288 whole entry, looked up): as the sequence (P37288 whole entry, looked up) above
For test [11], the target named is T3, Vasopressin V2 receptor. Briefly: Displacement of [3H]AVP from human vasopressin V2 receptor expressed in mouse LV2 cells. Type of test: cell-based.

Where only a bound is given, the exact number is not on record here.

T3 sequence (P30518 whole entry): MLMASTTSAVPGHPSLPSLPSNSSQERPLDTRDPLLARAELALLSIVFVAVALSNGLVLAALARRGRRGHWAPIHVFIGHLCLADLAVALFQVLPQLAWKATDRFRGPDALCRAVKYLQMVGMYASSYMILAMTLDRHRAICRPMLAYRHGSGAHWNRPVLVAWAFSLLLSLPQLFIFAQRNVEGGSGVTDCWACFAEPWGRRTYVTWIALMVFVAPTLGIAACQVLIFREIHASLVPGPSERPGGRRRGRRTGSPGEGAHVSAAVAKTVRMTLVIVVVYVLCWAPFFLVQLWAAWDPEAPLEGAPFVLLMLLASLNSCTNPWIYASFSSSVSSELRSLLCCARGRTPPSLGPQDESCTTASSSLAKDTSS

`Cc1ccc(F)cc1C(=O)Nc1ccc(C(=O)Nc2ccccc2Cn2cccc2C=O)c(Cl)c1`: the inhibition is -6% on Vasopressin V1a receptor [1], 12% in test [2] and 3% at Vasopressin V2 receptor [3].

In the case of `Cc1ccc(F)cc1C(=O)Nc1ccc(C(=O)N2C=C3CCC(=O)N3Cc3ccccc32)c(Cl)c1`, the results for the IC50 on Vasopressin V2 receptor [4], on Vasopressin V1a receptor [5] and on Oxytocin receptor were 0.011 µM, over 1 µM and over 1 µM, respectively. The Activity with Rattus norvegicus [6] was found to be 133%.

On to `Cc1ccc(F)cc1C(=O)Nc1ccc(C(=O)Nc2ccccc2C(=O)O)c(Cl)c1`, for which the Activity in the test with Rattus norvegicus [7] is -6%. In addition, the IC50 on Vasopressin V2 receptor [4], on Vasopressin V1a receptor [5] and at Oxytocin receptor was over 1 µM in each case.

For the compound `Cc1ccn(-c2ccc(C(=O)Nc3ccccc3Cn3cccc3C(=O)O)c(Cl)c2)n1`, the inhibition was -10% in [8] and 1% at Vasopressin V2 receptor [9].

Turning to `Cc1ccn(-c2ccc(C(=O)N3C=C4CCC(=O)N4Cc4ccccc43)c(Cl)c2)n1`, the inhibition at Vasopressin V1a receptor [10] was 4%. Also, the IC50 on Vasopressin V2 receptor [11] amounted to 1.21 µM. Further, the Activity in the test with Rattus norvegicus [6] stood at 0%.

Turning to `Cc1ccn(-c2ccc(C(=O)N3CC4C=CC(=O)N4Cc4ccccc43)c(Cl)c2)n1` (stereo not drawn), the inhibition in test [8] is -4%; at Vasopressin V1a receptor [10] it was -8%; on Vasopressin V2 receptor [9], 16%. In the test with Rattus norvegicus [6], the Activity is 16%.

Regarding `Cc1ccn(-c2ccc(C(=O)Nc3ccccc3C(=O)O)c(Cl)c2)n1`, the results for the inhibition at Vasopressin V1a receptor [10] and at Vasopressin V2 receptor [9] were -7% and 3%, respectively.

Take `Cc1ccn(-c2ccc(C(=O)N3Cc4cccn4Cc4ccccc43)c(Cl)c2)n1`: in the test with Rattus norvegicus [6], the Activity is on record as -82%. In addition, the IC50 on Oxytocin receptor is 0.353 µM.

As for `Cc1ccc(F)cc1C(=O)Nc1ccc(C(=O)N2CC3C=CC(=O)N3Cc3ccccc32)c(Cl)c1` (stereo not drawn), the IC50 was 0.034 µM on Vasopressin V2 receptor [4], over 1 µM on Vasopressin V1a receptor [5] and over 1 µM on Oxytocin receptor. In addition, the Activity in the test on Rattus norvegicus [6] is -26%.

In the case of `Cc1ccc(F)cc1C(=O)Nc1ccc(C(=O)N2C=C3C(O)CC(=O)N3Cc3ccccc32)c(Cl)c1` (stereo not drawn), the Activity in the test on Rattus norvegicus [6] was determined as 102%.

Take `O=C(O)c1ccn(-c2ccc(C(=O)N3Cc4cccn4Cc4ccccc43)c(Cl)c2)n1`: the Activity in the test with Rattus norvegicus [6] came to 0%.

Consider `Cc1ccc(F)cc1C(=O)Nc1ccc(C(=O)N2Cc3cccn3Cc3ccccc32)c(Cl)c1` [LIXIVAPTAN], for which the half-maximal inhibitory concentration (IC50) at Vasopressin V1a receptor [5] was found to be 0.124 µM; on Oxytocin receptor, 0.519 µM. Further, in the test with Rattus norvegicus [6], the Activity is listed as 740%.

For the compound `O=C(c1ccc(-n2ccc(CO)n2)cc1Cl)N1Cc2cccn2Cc2ccccc21`, in the test with Rattus norvegicus [6], the Activity is -82%.

On to `Cc1ccc(F)cc1C(=O)Nc1ccc(C(=O)Nc2ccccc2Cn2cccc2C(=O)O)c(Cl)c1`, for which the Activity in the test with Rattus norvegicus [7] was 6.9%. Also, the IC50 at Vasopressin V2 receptor [4], on Vasopressin V1a receptor [5] and on Oxytocin receptor was over 1 µM each time.

For the compound `Cc1ccc(F)cc1C(=O)Nc1ccc(C(=O)N2CC3=CCC(=O)N3Cc3ccccc32)c(Cl)c1`, the Activity in the test on Rattus norvegicus [6] turned out to be 131%.

`Cc1ccn(-c2ccc(C(=O)N3CC4=CCC(=O)N4Cc4ccccc43)c(Cl)c2)n1`: the figures for the inhibition (in test [8]; on Vasopressin V1a receptor [10]; on Vasopressin V2 receptor [9]) were 9%, -3% and 40%, respectively. In the test with Rattus norvegicus [6], the Activity is 0%.
